Experimental data reported in patent US20260022142A1, “MACROCYCLIC IMMUNOMODULATORS” (Bristol-Myers Squibb Company, priority 2022, published 2026).
Numbered stars: 1 amine (or outer) side, 2 acyl side, 3 side chain; on linkers, the order of the positions; unused ones are H or OH. Bridge positions count the residues as written; N and C are the ends. Square brackets hold non-standard residues; d marks the D form. Peptide text beside a SMILES is read from it. * marks the point of attachment. Phe(3-CF3) = N[C@@H](Cc1cccc(C(F)(F)F)c1)C(=O)O; Ala(morpholin-4-yl) = N[C@@H](CN1CCOCC1)C(=O)O; Phe(4-COOH) = N[C@@H](Cc1ccc(C(=O)O)cc1)C(=O)O; Bip = N[C@@H](Cc1ccc(-c2ccccc2)cc1)C(=O)O; NH(CH2)14COOH = O=C(O)CCCCCCCCCCCCCCN*; γGlu = O=C(O)[C@H](CCC(=O)[*:2])N[*:1]; βAsp = O=C(O)[C@H](CC(=O)[*:2])N[*:1]; NH(CH2)12COOH = O=C(O)CCCCCCCCCCCCN*; Val(3-OH) = CC(C)(O)[C@H](N)C(=O)O; Cha = N[C@@H](CC1CCCCC1)C(=O)O; PEG4 = NCCOCCOCCOCCOCCC(=O)O; Carboxymethyl = O=C(O)C*; Orn = NCCC[C@H](N)C(=O)O; Dab = NCC[C@H](N)C(=O)O; Nva = CCC[C@H](N)C(=O)O; Abu = CC[C@H](N)C(=O)O; AEEA = NCCOCCOCC(=O)O

Biological target: T1, PD-1/PD-L1 interaction (PE-labeled human PD-L1-Ig binding to Jurkat cell line over-expressing human PD-1) (Homo sapiens, UniProt Q15116)
T1 construct: expressed in transfected cells; host or cells: Jurkat
Experiment: Jurkat-PD-1 Cell Binding High-Content Screening Assay (CBA)
Format: cell-based
Conditions: Jurkat cell line over-expressing human PD-1; PE-labeled PD-L1-Ig 20 nM final; read-out: Jurkat hPD1-PDL1 IC50
Procedure, shortened: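 Jurkat cells stably over-expressing human PD-1 were seeded in DMEM with 10% fetal calf serum and pre-incubated with compound for 2 h at 37° C. PE-labeled human PD-L1-Ig was then added at 20 nM final for 1 hour, after which cells were fixed with paraformaldehyde, Hoechst-stained and imaged by high-content microscopy.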

T1 sequence (Q15116 25-288): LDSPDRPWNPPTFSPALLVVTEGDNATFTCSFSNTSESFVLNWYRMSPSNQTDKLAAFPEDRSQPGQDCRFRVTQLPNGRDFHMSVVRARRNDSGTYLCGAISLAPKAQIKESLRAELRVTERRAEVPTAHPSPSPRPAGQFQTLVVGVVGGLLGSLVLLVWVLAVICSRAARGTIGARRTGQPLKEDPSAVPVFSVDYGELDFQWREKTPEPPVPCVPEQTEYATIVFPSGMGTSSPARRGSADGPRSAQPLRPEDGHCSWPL

| IC50 | Compound |
| --- | --- |
| 0.244 µM | CC[C@@H]1NC(=O)CSC[C@@H](C(=O)N[C@@H](CCN)C(=O)NCCOCCOCCOCCOCCC(=O)NCCCCCCCCCCCCCCC(=O)O)NC(=O)[C@H](Cc2c[nH]cn2)NC(=O)[C@H](C(C)(C)O)NC(=O)[C@H](CC2CCCCC2)NC(=O)[C@H](CCN)NC(=O)[C@@H](CC(C)C)NC(=O)[C@H](CCCN)NC(=O)[C@H](Cc2ccc(C(=O)O)cc2)NC(=O)[C@H](Cc2ccc(-c3ccccc3)cc2)NC(=O)[C@H](Cc2ccc(C(=O)O)cc2)NC(=O)[C@H](Cc2cccc(C(F)(F)F)c2)NC(=O)[C@H](CC(=O)O)NC(=O)[C@H](Cc2ccc(OCC(=O)O)cc2)NC1=O [Compound 2927] ({CH2CO}-[Abu]Y(Carboxymethyl)D[Phe(3-CF3)][Phe(4-COOH)][Bip][Phe(4-COOH)][Orn][dL][Dab][Cha][Val(3-OH)]HC[Dab][PEG4]-{NH(CH2)14COOH}; thioether N-14) |
| 0.0448 µM | CC[C@@H]1NC(=O)CSC[C@@H](C(=O)N[C@@H](CCN)C(=O)NCCCCCCCCCCCCC(=O)O)NC(=O)[C@H](Cc2c[nH]cn2)NC(=O)[C@H](C(C)(C)O)NC(=O)[C@H](CC2CCCCC2)NC(=O)[C@H](CCN)NC(=O)[C@@H](CC(C)C)NC(=O)[C@H](CCCN)NC(=O)[C@H](Cc2ccc(C(=O)O)cc2)NC(=O)[C@H](Cc2ccc(-c3ccccc3)cc2)NC(=O)[C@H](Cc2ccc(C(=O)O)cc2)NC(=O)[C@H](Cc2cccc(C(F)(F)F)c2)NC(=O)[C@H](CC(=O)O)NC(=O)[C@H](Cc2ccc(OCC(=O)O)cc2)NC1=O [Compound 2928] ({CH2CO}-[Abu]Y(Carboxymethyl)D[Phe(3-CF3)][Phe(4-COOH)][Bip][Phe(4-COOH)][Orn][dL][Dab][Cha][Val(3-OH)]HC[Dab]-{NH(CH2)12COOH}; thioether N-14) |
| 0.369 µM | CC[C@@H]1NC(=O)CSC[C@@H](C(=O)N[C@@H](CCN)C(=O)NCCCCCCCCCCCCCCC(=O)O)NC(=O)[C@H](Cc2c[nH]cn2)NC(=O)[C@H](C(C)(C)O)NC(=O)[C@H](CC2CCCCC2)NC(=O)[C@H](CCN)NC(=O)[C@@H](CC(C)C)NC(=O)[C@H](CCCN)NC(=O)[C@H](Cc2ccc(C(=O)O)cc2)NC(=O)[C@H](Cc2ccc(-c3ccccc3)cc2)NC(=O)[C@H](Cc2ccc(C(=O)O)cc2)NC(=O)[C@H](Cc2cccc(C(F)(F)F)c2)NC(=O)[C@H](CC(=O)O)NC(=O)[C@H](Cc2ccc(OCC(=O)O)cc2)NC1=O [Compound 2929] ({CH2CO}-[Abu]Y(Carboxymethyl)D[Phe(3-CF3)][Phe(4-COOH)][Bip][Phe(4-COOH)][Orn][dL][Dab][Cha][Val(3-OH)]HC[Dab]-{NH(CH2)14COOH}; thioether N-14) |
| 0.0263 µM | CCC[C@@H]1NC(=O)CSC[C@@H](C(=O)N[C@@H](CCN)C(=O)NCCOCCOCC(=O)N[C@@H](CC(=O)NCCOCCOCC(=O)NCCCCCCCCCCCCC(=O)O)C(=O)O)NC(=O)[C@H](CO)NC(=O)[C@H](C(C)(C)O)NC(=O)[C@H](CC2CCCCC2)NC(=O)[C@H](CCN)NC(=O)[C@@H](CC(C)C)NC(=O)[C@H](CCCN)NC(=O)[C@H](Cc2ccc(C(=O)O)cc2)NC(=O)[C@H](Cc2ccc(-c3ccccc3)cc2)NC(=O)[C@H](Cc2ccc(C(=O)O)cc2)NC(=O)[C@H](Cc2cccc(C(F)(F)F)c2)NC(=O)[C@H](CC(=O)O)NC(=O)[C@H](Cc2ccc(OCC(=O)O)cc2)NC1=O [Compound 2931] ({CH2CO}-[Nva]Y(Carboxymethyl)D[Phe(3-CF3)][Phe(4-COOH)][Bip][Phe(4-COOH)][Orn][dL][Dab][Cha][Val(3-OH)]SC[Dab][AEEA][βAsp][AEEA]-{NH(CH2)12COOH}; thioether N-14) |
| 0.033 µM | CC[C@@H]1NC(=O)CSC[C@@H](C(=O)N[C@@H](CCN)C(=O)NCCOCCOCC(=O)N[C@@H](CCC(=O)NCCOCCOCC(=O)NCCCCCCCCCCCCC(=O)O)C(=O)O)NC(=O)[C@H](CO)NC(=O)[C@H](C(C)(C)O)NC(=O)[C@H](CC2CCCCC2)NC(=O)[C@H](CCN)NC(=O)[C@@H](CC(C)C)NC(=O)[C@H](CCCN)NC(=O)[C@H](Cc2ccc(C(=O)O)cc2)NC(=O)[C@H](Cc2ccc(-c3ccccc3)cc2)NC(=O)[C@H](Cc2ccc(C(=O)O)cc2)NC(=O)[C@H](Cc2cccc(C(F)(F)F)c2)NC(=O)[C@H](CC(=O)O)NC(=O)[C@H](Cc2ccc(OCC(=O)O)cc2)NC1=O [Compound 2932] ({CH2CO}-[Abu]Y(Carboxymethyl)D[Phe(3-CF3)][Phe(4-COOH)][Bip][Phe(4-COOH)][Orn][dL][Dab][Cha][Val(3-OH)]SC[Dab][AEEA][γGlu][AEEA]-{NH(CH2)12COOH}; thioether N-14) |
| 0.0265 µM | CC[C@@H]1NC(=O)CSC[C@@H](C(=O)N[C@@H](CCN)C(=O)NCCOCCOCC(=O)N[C@@H](CC(=O)NCCOCCOCC(=O)NCCCCCCCCCCCCC(=O)O)C(=O)O)NC(=O)[C@H](CO)NC(=O)[C@H](C(C)(C)O)NC(=O)[C@H](CC2CCCCC2)NC(=O)[C@H](CCN)NC(=O)[C@@H](CC(C)C)NC(=O)[C@H](CCCN)NC(=O)[C@H](Cc2ccc(C(=O)O)cc2)NC(=O)[C@H](Cc2ccc(-c3ccccc3)cc2)NC(=O)[C@H](Cc2ccc(C(=O)O)cc2)NC(=O)[C@H](Cc2cccc(C(F)(F)F)c2)NC(=O)[C@H](CC(=O)O)NC(=O)[C@H](Cc2ccc(OCC(=O)O)cc2)NC1=O [Compound 2933] ({CH2CO}-[Abu]Y(Carboxymethyl)D[Phe(3-CF3)][Phe(4-COOH)][Bip][Phe(4-COOH)][Orn][dL][Dab][Cha][Val(3-OH)]SC[Dab][AEEA][βAsp][AEEA]-{NH(CH2)12COOH}; thioether N-14) |
| 0.039 µM | CC(C)C[C@H]1NC(=O)[C@H](CCCN)NC(=O)[C@H](Cc2ccc(C(=O)O)cc2)NC(=O)[C@H](Cc2ccc(-c3ccccc3)cc2)NC(=O)[C@H](Cc2ccc(C(=O)O)cc2)NC(=O)[C@H](Cc2cccc(C(F)(F)F)c2)NC(=O)[C@H](CC(=O)O)NC(=O)[C@H](Cc2ccc(OCC(=O)O)cc2)NC(=O)[C@H](C)NC(=O)CSC[C@@H](C(=O)N[C@@H](CCN)C(=O)NCCOCCOCC(=O)N[C@@H](CCC(=O)NCCOCCOCC(=O)NCCCCCCCCCCCCC(=O)O)C(=O)O)NC(=O)[C@H](CO)NC(=O)[C@H](C(C)(C)O)NC(=O)[C@H](CC2CCCCC2)NC(=O)[C@H](CCN)NC1=O [Compound 2934] ({CH2CO}-AY(Carboxymethyl)D[Phe(3-CF3)][Phe(4-COOH)][Bip][Phe(4-COOH)][Orn][dL][Dab][Cha][Val(3-OH)]SC[Dab][AEEA][γGlu][AEEA]-{NH(CH2)12COOH}; thioether N-14) |
| 0.0424 µM | CC(C)C[C@H]1NC(=O)[C@H](CCCN)NC(=O)[C@H](Cc2ccc(C(=O)O)cc2)NC(=O)[C@H](Cc2ccc(-c3ccccc3)cc2)NC(=O)[C@H](Cc2ccc(C(=O)O)cc2)NC(=O)[C@H](Cc2cccc(C(F)(F)F)c2)NC(=O)[C@H](CC(=O)O)NC(=O)[C@H](Cc2ccc(OCC(=O)O)cc2)NC(=O)[C@H](C)NC(=O)CSC[C@@H](C(=O)N[C@@H](CCN)C(=O)NCCOCCOCC(=O)N[C@@H](CC(=O)NCCOCCOCC(=O)NCCCCCCCCCCCCC(=O)O)C(=O)O)NC(=O)[C@H](CO)NC(=O)[C@H](C(C)(C)O)NC(=O)[C@H](CC2CCCCC2)NC(=O)[C@H](CCN)NC1=O [Compound 2935] ({CH2CO}-AY(Carboxymethyl)D[Phe(3-CF3)][Phe(4-COOH)][Bip][Phe(4-COOH)][Orn][dL][Dab][Cha][Val(3-OH)]SC[Dab][AEEA][βAsp][AEEA]-{NH(CH2)12COOH}; thioether N-14) |
| 0.0117 µM | CC(C)C[C@@H]1NC(=O)CSC[C@@H](C(=O)N[C@@H](CCN)C(=O)NCCOCCOCC(=O)N[C@@H](CC(=O)NCCOCCOCC(=O)NCCCCCCCCCCCCC(=O)O)C(=O)O)NC(=O)[C@H](CO)NC(=O)[C@H](C(C)(C)O)NC(=O)[C@H](CC2CCCCC2)NC(=O)[C@H](CCN)NC(=O)[C@@H](CC(C)C)NC(=O)[C@H](CCCN)NC(=O)[C@H](Cc2ccc(C(=O)O)cc2)NC(=O)[C@H](Cc2ccc(-c3ccccc3)cc2)NC(=O)[C@H](Cc2ccc(C(=O)O)cc2)NC(=O)[C@H](Cc2cccc(C(F)(F)F)c2)NC(=O)[C@H](CC(=O)O)NC(=O)[C@H](Cc2ccc(OCC(=O)O)cc2)NC1=O [Compound 2937] ({CH2CO}-LY(Carboxymethyl)D[Phe(3-CF3)][Phe(4-COOH)][Bip][Phe(4-COOH)][Orn][dL][Dab][Cha][Val(3-OH)]SC[Dab][AEEA][βAsp][AEEA]-{NH(CH2)12COOH}; thioether N-14) |
| 0.0268 µM | COC[C@@H]1NC(=O)CSC[C@@H](C(=O)N[C@@H](CCN)C(=O)NCCOCCOCC(=O)N[C@@H](CCC(=O)NCCOCCOCC(=O)NCCCCCCCCCCCCC(=O)O)C(=O)O)NC(=O)[C@H](CO)NC(=O)[C@H](C(C)(C)O)NC(=O)[C@H](CC2CCCCC2)NC(=O)[C@H](CCN)NC(=O)[C@@H](CC(C)C)NC(=O)[C@H](CCCN)NC(=O)[C@H](Cc2ccc(C(=O)O)cc2)NC(=O)[C@H](Cc2ccc(-c3ccccc3)cc2)NC(=O)[C@H](Cc2ccc(C(=O)O)cc2)NC(=O)[C@H](Cc2cccc(C(F)(F)F)c2)NC(=O)[C@H](CC(=O)O)NC(=O)[C@H](Cc2ccc(OCC(=O)O)cc2)NC1=O [Compound 2938] ({CH2CO}-S(Me)Y(Carboxymethyl)D[Phe(3-CF3)][Phe(4-COOH)][Bip][Phe(4-COOH)][Orn][dL][Dab][Cha][Val(3-OH)]SC[Dab][AEEA][γGlu][AEEA]-{NH(CH2)12COOH}; thioether N-14) |
| 0.0143 µM | CC(C)C[C@H]1NC(=O)[C@H](CCCN)NC(=O)[C@H](Cc2ccc(C(=O)O)cc2)NC(=O)[C@H](Cc2ccc(-c3ccccc3)cc2)NC(=O)[C@H](Cc2ccc(C(=O)O)cc2)NC(=O)[C@H](Cc2cccc(C(F)(F)F)c2)NC(=O)[C@H](CC(=O)O)NC(=O)[C@H](Cc2ccc(OCC(=O)O)cc2)NC(=O)[C@H](CN2CCOCC2)NC(=O)CSC[C@@H](C(=O)N[C@@H](CCN)C(=O)NCCOCCOCC(=O)N[C@@H](CCC(=O)NCCOCCOCC(=O)NCCCCCCCCCCCCC(=O)O)C(=O)O)NC(=O)[C@H](CO)NC(=O)[C@H](C(C)(C)O)NC(=O)[C@H](CC2CCCCC2)NC(=O)[C@H](CCN)NC1=O [Compound 2940] ({CH2CO}-[Ala(morpholin-4-yl)]Y(Carboxymethyl)D[Phe(3-CF3)][Phe(4-COOH)][Bip][Phe(4-COOH)][Orn][dL][Dab][Cha][Val(3-OH)]SC[Dab][AEEA][γGlu][AEEA]-{NH(CH2)12COOH}; thioether N-14) |
